Usually IC50 stands for the concentration that gives 50% inhibition. A high value points to weaker potency.

Each structure is given as a SMILES string.

The values that follow come from US20100292266A1, “Oxazolyl Piperidine Modulators of Fatty Acid Amide Hydrolase” (priority 2006, published 2010).

The target of one experiment is T1, Rat FAAH (Rattus norvegicus, UniProt P97612).
T1 construct: expressed in transfected cells
T1 sequence (P97612 1-579): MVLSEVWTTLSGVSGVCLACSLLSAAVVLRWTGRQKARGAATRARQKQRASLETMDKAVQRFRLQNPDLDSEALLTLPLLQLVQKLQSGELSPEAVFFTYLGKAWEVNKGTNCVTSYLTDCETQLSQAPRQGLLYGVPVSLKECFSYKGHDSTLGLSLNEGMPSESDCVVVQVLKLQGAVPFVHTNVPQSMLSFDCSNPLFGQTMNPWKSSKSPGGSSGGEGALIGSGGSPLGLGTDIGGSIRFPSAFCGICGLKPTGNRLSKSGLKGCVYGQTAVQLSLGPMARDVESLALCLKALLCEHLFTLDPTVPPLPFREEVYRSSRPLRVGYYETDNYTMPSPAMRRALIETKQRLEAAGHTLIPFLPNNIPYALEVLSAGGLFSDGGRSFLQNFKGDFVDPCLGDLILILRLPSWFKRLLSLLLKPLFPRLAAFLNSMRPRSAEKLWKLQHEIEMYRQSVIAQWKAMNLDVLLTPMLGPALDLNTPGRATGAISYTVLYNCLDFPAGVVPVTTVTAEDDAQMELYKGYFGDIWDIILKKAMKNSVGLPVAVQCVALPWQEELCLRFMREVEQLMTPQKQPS
In words: Assay Method 2: FAAH assay, 3H-anandamide hydrolysis in cell homogenate. Type of experiment: biochemical. The conditions noted are these: transfected SK-N-MC cell homogenate, 80 nM 3H-AEA, 1 h rt, > = solubility limit or highest concentration tested. The protocol:
A. Transfection of Cells with Rat FAAH
(§1) A 10-cm tissue culture dish with a confluent monolayer of SK-N-MC cells was split 2 days (d) prior to transfection. Using sterile technique, the media was removed and the cells were detached from the dish by the addition of trypsin. One fifth of the cells were then placed onto a new 10-cm dish. Cells were grown in a 37° C. incubator with 5% CO2 in Minimal Essential Media Eagle with 10% Fetal Bovine Serum. After 2 d, cells were approximately 80% confluent. These cells were removed from the dish with trypsin and pelleted in a clinical centrifuge. The pellet was re-suspended in 400 μL complete media and transferred to an electroporation cuvette with a 0.4 cm gap between the electrodes. Supercoiled rat FAAH cDNA (1 μg) was added to the cells and mixed. The voltage for the electroporation was set at 0.25 kV, and the capacitance was set at 960 μF. After electroporation, the cells were diluted into complete media (10 mL) and plated onto four 10-cm dishes. Because of the variability in the efficiency of electroporation, four different concentrations of cells were plated. The ratios used were 1:20, 1:10, and 1:5, with the remainder of the cells being added to the fourth dish. The cells were allowed to recover for 24 h before adding the selection media (complete media with 600 μg/mL G418). After 10 d, dishes were analyzed for surviving colonies of cells. Dishes with well-isolated colonies were used. Cells from individual colonies were isolated and tested.
(§2) The assay mixture consisted of 50 μL of the cell homogenate, 10 μL of the test compound, and 40 μL of anandamide [1-^3H-ethanolamine] (^3H-AEA, Perkin-Elmer, 10.3 Ci/mmol), which was added last, for a final tracer concentration of 80 nM. The reaction mixture was incubated at it for 1 h. During the incubation, 96-well Multiscreen filter plates (catalog number MAFCNOB50; Millipore, Bedford, Mass., USA) were loaded with 25 μL of activated charcoal (Multiscreen column loader, catalog number MACL09625, Millipore) and washed once with 100 μL of MeOH. Also during the incubation, 96-well DYNEX MicroLite plates (catalog number NL510410) were loaded with 100 μL of MicroScint40 (catalog number 6013641, Packard Bioscience, Meriden, Conn., USA). After the 1 h incubation, 60 μL of the reaction mixture were transferred to the charcoal plates, which were then assembled on top of the DYNEX plates using Centrifuge Alignment Frames (catalog number MACF09604, Millipore). The unbound labeled ethanolamine . was centrifuged through to the bottom plate (5 min at 2000 rpm), which was preloaded with the scintillant, as described above. The plates were sealed and left at rt for 1 h before counting on a Hewlett Packard TopCount.
(§3) Where activity is shown as greater than (>) a particular value, the value is the solubility limit of the compound in the assay medium or the highest concentration tested in the assay.

Another experiment deals with T2, FAAH (Homo sapiens, UniProt O00519).
T2 sequence (O00519 1-579): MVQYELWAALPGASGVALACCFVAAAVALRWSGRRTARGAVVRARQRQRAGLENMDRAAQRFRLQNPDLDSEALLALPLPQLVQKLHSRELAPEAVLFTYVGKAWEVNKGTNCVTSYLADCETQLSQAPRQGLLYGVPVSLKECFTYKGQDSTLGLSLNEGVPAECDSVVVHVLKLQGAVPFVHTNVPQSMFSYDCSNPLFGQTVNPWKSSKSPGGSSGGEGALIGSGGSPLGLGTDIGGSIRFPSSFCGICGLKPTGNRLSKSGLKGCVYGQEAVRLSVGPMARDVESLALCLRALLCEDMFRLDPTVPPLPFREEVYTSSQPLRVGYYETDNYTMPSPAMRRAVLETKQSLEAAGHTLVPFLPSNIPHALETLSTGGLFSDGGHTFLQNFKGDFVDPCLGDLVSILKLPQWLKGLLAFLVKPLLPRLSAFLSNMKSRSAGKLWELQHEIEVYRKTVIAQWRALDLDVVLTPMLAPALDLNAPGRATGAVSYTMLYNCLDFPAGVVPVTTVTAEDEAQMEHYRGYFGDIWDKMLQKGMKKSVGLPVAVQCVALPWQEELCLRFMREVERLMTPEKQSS
Kind of experiment: Assay Method 1: FAAH assay, 3H-anandamide hydrolysis in cell homogenate. Type of experiment: biochemical. Set-up: expressed in transfected cells. To be noted: T84 or transfected SK-N-MC cell homogenate, 80 nM 3H-AEA, 1 h rt, > = solubility limit or highest concentration tested. The protocol:
A. Transfection of Cells with Human FAAH
as §1, with “Supercoiled human” for “Supercoiled rat”
as §2, with “at rt” for “at it”, “ethanolamine” for “ethanolamine .”
as §3

For `O=C(c1ncco1)C1CCN(C(=O)c2ccc(Cl)cc2)CC1` [Example 11, [1-(4-Chloro-benzoyl)-piperidin-4-yl]-oxazol-2-yl-methanone], the results for the half-inhibitory concentration (IC50) on Rat FAAH and against FAAH were 7500 nM and 2150 nM, respectively.

Consider `O=C(c1ncco1)C1CCN(C(=O)CCc2ccccc2)CC1` [Example 14, 1-[4-(Oxazole-2-carbonyl)-piperidin-1-yl]-3-phenyl-propan-1-one], for which the figures for the IC50 against Rat FAAH and against FAAH were 9000 nM and 1600 nM, respectively.

As for `O=C(c1ncco1)C1CCN(Cc2ccc3c(c2)OCO3)CC1` [Example 15, (1-Benzo[1,3]dioxol-5-ylmethyl-piperidin-4-yl)-oxazol-2-yl-methanone], the half-maximal inhibitory concentration (IC50) at Rat FAAH was 582 nM; against FAAH, 113 nM.

With `CC(C)COc1cccc(CN2CCC(C(=O)c3ncco3)CC2)c1` [Example 16, [1-(3-Isobutoxy-benzyl)-piperidin-4-yl]-oxazol-2-yl-methanone], the half-inhibitory concentration (IC50) against Rat FAAH is 975 nM; against FAAH it was 31 nM.

Take `O=C(c1ncco1)C1CCN(Cc2cccc(C(F)(F)F)c2)CC1` [Example 18, Oxazol-2-yl-[1-(3-trifluoromethyl-benzyl)-piperidin-4-yl]-methanone]: the IC50 against Rat FAAH was 96 nM; at FAAH it was 51 nM.

With `O=C(c1ncco1)C1CCN(Cc2ccc(C(F)(F)F)cc2)CC1` [Example 19], the concentration for half-maximal inhibition (IC50) on Rat FAAH was found to be 15 nM; against FAAH it was 10 nM.

For the compound `O=C(c1ncco1)C1CCN(Cc2cccc(OC3CCCCC3)c2)CC1` [Example 22, [1-(3-Cyclohexyloxy-benzyl)-piperidin-4-yl]-oxazol-2-yl-methanone], the IC50 on Rat FAAH was 790 nM; against FAAH, 12 nM.

As for `CC(C)Oc1ccc(CN2CCC(C(=O)c3ncco3)CC2)cc1` [Example 23, [1-(4-Isopropoxy-benzyl)-piperidin-4-yl]-oxazol-2-yl-methanone], the figures for the IC50 against Rat FAAH and against FAAH were over 10000 nM and 5000 nM, respectively.

Turning to `CS(=O)(=O)c1cc(Br)ccc1CN1CCC(C(=O)c2ncco2)CC1` [Example 25, [1-(4-Bromo-2-methanesulfonyl-benzyl)-piperidin-4-yl]-oxazol-2-yl-methanone], the half-maximal inhibitory concentration (IC50) amounted to 23 nM at Rat FAAH and 13 nM at FAAH.

As to `O=C(c1ncco1)C1CCN(Cc2ccc(Br)c([N+](=O)[O-])c2)CC1` [Example 26, [1-(4-Bromo-3-nitro-benzyl)-piperidin-4-yl]-oxazol-2-yl-methanone], the IC50 at Rat FAAH is 9 nM; on FAAH it was 3 nM.

As for `O=C(c1ncco1)C1CCN(Cc2ccc(Br)cc2F)CC1` [Example 27, [1-(4-Bromo-2-fluoro-benzyl)-piperidin-4-yl]-oxazol-2-yl-methanone], the IC50 is 75 nM against Rat FAAH and 11 nM against FAAH.

As to `CCOc1cccc(CN2CCC(C(=O)c3ncco3)CC2)c1` [Example 29, [1-(3-Ethoxy-benzyl)-piperidin-4-yl]-oxazol-2-yl-methanone], the results for the half-maximal inhibitory concentration (IC50) on Rat FAAH and at FAAH were 1400 nM and 170 nM, respectively.

On to `O=C(c1ncco1)C1CCN(Cc2ccc(F)cc2)CC1` [Example 30, [1-(4-Fluoro-benzyl)-piperidin-4-yl]-oxazol-2-yl-methanone], for which the half-maximal inhibitory concentration (IC50) came out at 873 nM against Rat FAAH and 148 nM against FAAH.

On to `O=C(c1ncco1)C1CCN(Cc2cccc(F)c2)CC1` [Example 31, [1-(3-Fluoro-benzyl)-piperidin-4-yl]-oxazol-2-yl-methanone], for which the IC50 is 1400 nM against Rat FAAH and 303 nM against FAAH.

Consider `O=C(c1ncco1)C1CCN(Cc2ccccc2F)CC1` [Example 32, [1-(2-Fluoro-benzyl)-piperidin-4-yl]-oxazol-2-yl-methanone], for which the IC50 at Rat FAAH was over 10000 nM; at FAAH, 1500 nM.

As for `O=C(c1ncco1)C1CCN(Cc2ccccc2Cl)CC1` [Example 33, [1-(2-Chloro-benzyl)-piperidin-4-yl]-oxazol-2-yl-methanone], the IC50 at Rat FAAH worked out at 890 nM; at FAAH, 156 nM.
